From patent US20250388605A1, “HETEROBIFUNCTIONAL COMPOUNDS AND METHODS OF TREATING DISEASE” (Halda Therapeutics OpCo, Inc., priority 2022, published 2025) come the findings set out here.

Assay [1] relates to T-Rex 293 cell line SC3 cells having increased expression of androgen receptor protein due to exposure to doxycycline. Briefly: Cellular growth inhibition, T-Rex 293 SC3 cells with doxycycline (increased androgen receptor expression), CellTiter-Glo. As to conditions: T-Rex 293 SC3 cells with 10 ng/mL doxycycline (increased androgen receptor expression), 72 hours, CellTiter-Glo 2.0. The format is cell-based. In a few lines:
(§1)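 Doxycycline (10 ng/mL) was either included or omitted to toggle wild-type androgen receptor expression in SC3 cells, a T-Rex 293 clone, grown in stripped-serum, phenol red-free medium. After 72 hours with compound, viable cells were quantified by CellTiter-Glo 2.0.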

For assay [2], the system named is T-Rex 293 cell line SC3 cells lacking increased expression of androgen receptor protein. Briefly: Cellular growth inhibition, T-Rex 293 SC3 cells without doxycycline (no increased androgen receptor expression), CellTiter-Glo. The format is cell-based. As to conditions: T-Rex 293 SC3 cells not exposed to doxycycline (no increased androgen receptor expression), 72 hours. A digest of the protocol:
as §1

For a further assay, the system named is VCaP cells. Briefly: Cellular growth inhibition assay for VCaP cells, CellTiter-Glo. The format is cell-based, human. As to conditions: 72 hours. A digest of the protocol:
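GI50 values come from four-parameter curve fits of luminescence data normalized to a zero baseline. Compound, in medium with 0.5% DMSO, was added one day after plating and left for 72 h before CellTiter-Glo 2.0 addition.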

A further assay deals with T47D cells. Briefly: Cellular Growth Inhibition Assay for T47D Cells (CellTiter-Glo). The format is cell-based, human. As to conditions: 72 hours. In a few lines: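 GI50 values derive from four-parameter regression of CellTiter-Glo 2.0 luminescence, using zero luminescence as baseline. Human breast cancer T47D cells (3000/well; DMEM, 10% FBS, 0.2 units/mL insulin) were exposed for 72 h to compound dilutions at 0.5% DMSO, with dosing starting 24 h after seeding.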

Turning to `Cn1cc(-c2cc(C(C)(C)O)ccc2Oc2ccc(CCOC3CCN(c4ncc(C(=O)N[C@H]5C(C)(C)[C@H](Oc6ccc(C#N)c(Cl)c6)C5(C)C)cn4)CC3)cc2)c2cc[nH]c2c1=O` [Compound I-194], the GI50 is < 500 nM in assay [1], 1500 to 3000 nM in assay [2], 500 to 1500 nM in the assay with VCaP cells (Homo sapiens) and 500 to 1500 nM in the assay with T47D cells (Homo sapiens).
In the case of `CCS(=O)(=O)Nc1ccc(Oc2cccc(COC3CCN(c4ncc(C(=O)N[C@H]5C(C)(C)[C@H](Oc6ccc(C#N)c(Cl)c6)C5(C)C)cn4)CC3)c2)c(-c2cn(C)c(=O)c3[nH]ccc23)c1` [Compound I-18, N-((1r, 3r)-3-(3-chloro-4-cyanophenoxy)-2,2,4,4-tetramethylcyclobutyl)-2-(4-((3-(4-(ethylsulfonamido)-2-(6-methyl-7-oxo-6,7-dihydro-1H-pyrrolo[2,3-c]pyridin-4-yl)phenoxy)benzyl)oxy)piperidin-1-yl)pyrimidine-5-carboxamide], the GI50 (in assay [1]; in assay [2]; with VCaP cells (Homo sapiens); in the assay on T47D cells (Homo sapiens)) was < 500 nM each time.
In the case of `CCS(=O)(=O)c1ccc(Oc2cccc(OCCN3CCN(c4ncc5c(n4)CN([C@H]4C(C)(C)[C@H](Oc6ccc(C#N)c(Cl)c6)C4(C)C)C5=O)CC3)c2F)c(-c2cn(C)c(=O)c3[nH]ccc23)c1` [Compound I-217], the GI50 (in assay [1]; in assay [2]; in the assay on VCaP cells; in the assay with T47D cells) was < 500 nM each time.
Regarding `CCS(=O)(=O)Nc1ccc(Oc2cccc(N3CCN(C4CN(c5ncc(C(=O)N[C@H]6C(C)(C)[C@H](Oc7ccc(C#N)c(Cl)c7)C6(C)C)cn5)C4)CC3)c2)c(-c2cn(C)c(=O)c3[nH]ccc23)c1` [Compound I-126], the GI50 was < 500 nM in assay [1], > 3000 nM in assay [2], < 500 nM in the assay on VCaP cells (Homo sapiens) and < 500 nM in the assay with T47D cells (Homo sapiens).
With `Cc1ccc(CCCOC2CCN(c3ncc(C(=O)N[C@H]4C(C)(C)[C@H](Oc5ccc(C#N)c(Cl)c5)C4(C)C)cn3)CC2)cc1Oc1ccc(C(C)(C)O)cc1-c1cn(C)c(=O)c2[nH]ccc12` [Compound I-192], the GI50 in assay [1] was < 500 nM; in assay [2], 500 to 1500 nM; with VCaP cells (Homo sapiens), 500 to 1500 nM; with T47D cells (Homo sapiens) it was 500 to 1500 nM.
For `Cn1cc(-c2cc(C(C)(C)O)ccc2Oc2cccc(CCOC3CCN(c4ncc(C(=O)N[C@H]5C(C)(C)[C@H](Oc6ccc(C#N)c(Cl)c6)C5(C)C)cn4)CC3)c2F)c2cc[nH]c2c1=O` [Compound I-147], the GI50 (in assay [1]; in assay [2]; with VCaP cells; in the assay with T47D cells) was < 500 nM in each case.
`CCS(=O)(=O)Nc1ccc(Oc2cccc(OCCOCCOCCOC3CCN(c4ncc(C(=O)N[C@H]5C(C)(C)[C@H](Oc6ccc(C#N)c(Cl)c6)C5(C)C)cn4)CC3)c2)c(-c2cn(C)c(=O)c3[nH]ccc23)c1` [Compound I-7]: the GI50 (in assay [1]; in assay [2]; with VCaP cells (Homo sapiens); in the assay on T47D cells (Homo sapiens)) was < 500 nM in each case.
With `CCS(=O)(=O)Nc1ccc(Oc2cccc(OCCOC3CCN(c4cnc(C(=O)N[C@H]5C(C)(C)[C@H](Oc6ccc(C#N)c(Cl)c6)C5(C)C)cn4)CC3)c2)c(-c2cn(C)c(=O)c3[nH]ccc23)c1` [Compound I-71, N-((1r, 3r)-3-(3-chloro-4-cyanophenoxy)-2,2,4,4-tetramethylcyclobutyl)-5-(4-(2-(3-(4-(ethylsulfonamido)-2-(6-methyl-7-oxo-6,7-dihydro-1H-pyrrolo[2,3-c]pyridin-4-yl)phenoxy)phenoxy)ethoxy)piperidin-1-yl)pyrazine-2-carboxamide], the GI50 (in assay [1]; in assay [2]; in the assay on VCaP cells (Homo sapiens); with T47D cells (Homo sapiens)) was < 500 nM each time.
Turning to `Cn1cc(-c2cc(C(C)(C)O)ccc2Oc2cccc(CCCN3CCN(c4ncc(C(=O)N[C@H]5C(C)(C)[C@H](Oc6ccc(C#N)c(Cl)c6)C5(C)C)cn4)CC3)c2)c2cc[nH]c2c1=O` [Compound I-110], the GI50 (in assay [1]; in assay [2]; in the assay with VCaP cells (Homo sapiens); in the assay on T47D cells (Homo sapiens)) was < 500 nM in each case.
With `Cn1cc(-c2cc(C(C)(C)O)ccc2Oc2ccc(CC3CCN(c4ncc(C(=O)N[C@H]5C(C)(C)[C@H](Oc6ccc(C#N)c(Cl)c6)C5(C)C)cn4)CC3)cc2)c2cc[nH]c2c1=O` [Compound I-201], the GI50 was < 500 nM in assay [1], 500 to 1500 nM in assay [2], 500 to 1500 nM in the assay on VCaP cells (Homo sapiens) and < 500 nM in the assay on T47D cells (Homo sapiens).
Regarding `CC(C)N(C1CCN(c2ncc(C(=O)N[C@H]3C(C)(C)[C@H](Oc4ccc(C#N)c(Cl)c4)C3(C)C)cn2)CC1)C1CN(c2cccc(Oc3ccc(C(C)(C)O)cc3-c3cn(C)c(=O)c4[nH]ccc34)c2F)C1` [Compound I-221], the GI50 was < 500 nM in assay [1], > 3000 nM in assay [2], > 3000 nM in the assay with VCaP cells (Homo sapiens) and 500 to 1500 nM in the assay on T47D cells (Homo sapiens).
Regarding `CCS(=O)(=O)Nc1ccc(Oc2cccc(CCN3CC4CN(c5ncc(C(=O)N[C@H]6C(C)(C)[C@H](Oc7ccc(C#N)c(Cl)c7)C6(C)C)cn5)CC4C3)c2)c(-c2cn(C)c(=O)c3[nH]ccc23)c1` (stereo partly drawn) [Compound I-119], the GI50 (in assay [1]; in assay [2]; in the assay with VCaP cells (Homo sapiens); in the assay with T47D cells (Homo sapiens)) was < 500 nM throughout.
Take `CN(C1CCN(c2ncc(C(=O)N[C@H]3C(C)(C)[C@H](Oc4ccc(C#N)c(Cl)c4)C3(C)C)cn2)CC1)C1CN(c2ccc(Oc3ccc(C(C)(C)O)cc3-c3cn(C)c(=O)c4[nH]ccc34)cc2)C1` [Compound I-208]: the GI50 in assay [1] is < 500 nM; in assay [2] it was < 500 nM; with VCaP cells (Homo sapiens) it was 500 to 1500 nM; in the assay with T47D cells (Homo sapiens), < 500 nM.
Consider `Cn1cc(-c2cc(N)ccc2Oc2cccc(N3CC(N4CCN(c5ncc(C(=O)N[C@H]6C(C)(C)[C@H](Oc7ccc(C#N)c(Cl)c7)C6(C)C)cn5)CC4)C3)c2F)c2cc[nH]c2c1=O` [Compound I-93], for which the GI50 in assay [1] is < 500 nM; in assay [2] it was > 3000 nM; with VCaP cells (Homo sapiens) it was < 500 nM; in the assay with T47D cells (Homo sapiens), 500 to 1500 nM.
With `Cn1cc(-c2ccccc2Oc2cccc(N3CC(N4CCN(c5ncc(C(=O)N[C@H]6C(C)(C)[C@H](Oc7ccc(C#N)c(Cl)c7)C6(C)C)cn5)CC4)C3)c2F)c2cc[nH]c2c1=O` [Compound I-94], the GI50 is < 500 nM in assay [1], > 3000 nM in assay [2], > 3000 nM with VCaP cells (Homo sapiens) and 500 to 1500 nM in the assay on T47D cells (Homo sapiens).
For the compound `Cn1cc(-c2ccccc2Oc2cccc(OCCN3CCN(c4ncc(C(=O)N[C@H]5C(C)(C)[C@H](Oc6ccc(C#N)c(Cl)c6)C5(C)C)cn4)CC3)c2)c2cc[nH]c2c1=O` [Compound I-98], the concentration for 50% growth inhibition (GI50) was < 500 nM in assay [1], 500 to 1500 nM in assay [2], < 500 nM in the assay on VCaP cells (Homo sapiens) and < 500 nM with T47D cells (Homo sapiens).
Regarding `CCS(=O)(=O)Nc1ccc(Oc2cccc(OCCOC3CCN(c4ncc(C(=O)N[C@H]5C(C)(C)[C@H](Oc6ccc(C#N)c(Cl)c6)C5(C)C)cn4)CC3)c2)c(-c2cn(C)c(=O)c3c2ccn3C)c1` [Compound I-121], the GI50 in assay [1] is < 500 nM; in assay [2], > 3000 nM; in the assay on VCaP cells (Homo sapiens), < 500 nM; in the assay on T47D cells (Homo sapiens), 500 to 1500 nM.
On to `CN(C1CN(c2ccc(Oc3ccc(C(C)(C)O)cc3-c3cn(C)c(=O)c4[nH]ccc34)cc2)C1)C1CN(c2ncc(C(=O)N[C@H]3C(C)(C)[C@H](Oc4ccc(C#N)c(Cl)c4)C3(C)C)cn2)C1` [Compound I-238], for which the GI50 in assay [1] is < 500 nM; in assay [2], 500 to 1500 nM; in the assay on VCaP cells, < 500 nM; in the assay with T47D cells, < 500 nM.
